Laboratory results taken from patent publication US20110105474A1, “HETEROCYCLIC DERIVATIVES AS HDAC INHIBITORS” (DAC S.r.l., priority 2008, published 2011).
Counter-ions that a name gives are not always drawn.

Assays:
Type in all cases: cell-based
A549 cells = experiment: Cell growth, CellTiter-Glo Luminescent Cell Viability Assay, A549; details: Homo sapiens, 72 h incubation
Method in brief: (§1)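 K562, A549 and HCT-116 cells in exponential growth exposed to inhibitors at varying concentrations for 72 h. Viability read as ATP luminescence (CellTiter-Glo, 10 min at RT after lysis); IC50 from dose-response, reported as ranges.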

K562 cells = experiment: Cell growth, CellTiter-Glo Luminescent Cell Viability Assay, K562; details: Homo sapiens, 72 h incubation
Method in brief: as §1

HCT-116 cells = experiment: Cell growth, CellTiter-Glo Luminescent Cell Viability Assay, HCT-116; details: Homo sapiens, 72 h incubation, read-out: IC50 HCT116
Method in brief: as §1

Row | IC50 (A549 cells) [nM] | IC50 (K562 cells) [nM] | IC50 (HCT-116 cells) [nM] | SMILES
1 | ≥ 3000 | ≥ 3000 | ≥ 3000 | O=C(/C=C/c1cccc(/C=C/C(=O)N2CCC[C@@H](c3ccccc3)C2)c1)NO [Example 82, (E)-N-Hydroxy-3-{3-[(E)-3-oxo-3-((S)-3-phenyl-piperidin-1-yl)-propenyl]-phenyl}-acrylamide]
2 | ≥ 3000 | 1000 to 3000 | 1000 to 3000 | O=C(/C=C/c1cccc(/C=C/C(=O)N2CCN(c3cccc(Cl)c3)CC2)c1)NO [Example 85, (E)-3-(3-{(E)-3-[4-(3-Chloro-phenyl)-piperazin-1-yl]-3-oxo-propenyl}-phenyl)-N-hydroxy-acrylamide hydrochloride]
3 | ≥ 3000 | ≥ 3000 | ≥ 3000 | O=C(/C=C/c1cccc(/C=C/C(=O)N2CCC(Cc3ccccc3)CC2)c1)NO [Example 86, (E)-3-{3-[(E)-3-(4-Benzyl-piperidin-1-yl)-3-oxo-propenyl]-phenyl}-N-hydroxy-acrylamide]
4 | ≥ 3000 | 1000 to 3000 | 1000 to 3000 | O=C(/C=C/c1cccc(/C=C/C(=O)N2CCN(c3ccccc3Cl)CC2)c1)NO [Example 87, (E)-3-(3-{(E)-3-[4-(2-Chloro-phenyl)-piperazin-1-yl]-3-oxo-propenyl}-phenyl)-N-hydroxy-acrylamide hydrochloride]
5 | 1000 to 3000 | ≤ 1000 | ≤ 1000 | N#Cc1ccc(N2CCN(C(=O)/C=C/c3cccc(/C=C/C(=O)NO)c3)CC2)cc1 [Example 88, (E)-3-(3-{(E)-3-[4-(4-Cyano-phenyl)-piperazin-1-yl]-3-oxo-propenyl}-phenyl)-N-hydroxy-acrylamide hydrochloride]
6 | ≥ 3000 | ≥ 3000 | ≥ 3000 | O=C(/C=C/c1cccc(/C=C/C(=O)N2CCC=C(c3ccccc3)C2)c1)NO [Example 89, (E)-N-Hydroxy-3-{3-[(E)-3-oxo-3-(5-phenyl-3,6-dihydro-2H-pyridin-1-yl)-propenyl]-phenyl}-acrylamide]
7 | ≥ 3000 | 1000 to 3000 | 1000 to 3000 | O=C(/C=C/c1cccc(/C=C/C(=O)N2CCNC(c3ccccc3)C2)c1)NO (stereo not drawn) [Example 90, (E)-N-Hydroxy-3-{3-[(E)-3-oxo-3-(3-phenyl-piperazin-1-yl)-propenyl]phenyl}-acrylamide hydrochloride]
8 | 1000 to 3000 | 1000 to 3000 | 1000 to 3000 | O=C(/C=C/c1cccc(/C=C/C(=O)N2CCN(c3ccc(C(F)(F)F)cc3)CC2)c1)NO [Example 91, (E)-N-Hydroxy-3-(3-{(E)-3-oxo-3-[4-(4-trifluoromethyl-phenyl)-piperazin-1-yl]-propenyl}-phenyl)-acrylamide hydrochloride]
9 | ≤ 1000 | ≤ 1000 | ≤ 1000 | O=C(/C=C/c1cccc(/C=C/C(=O)N2CCCC(c3ccccc3F)C2)n1)NO (stereo not drawn) [Example 92, (E)-3-(6-{(E)-3-[3-(2-Fluoro-phenyl)-piperidin-1-yl]-3-oxo-propenyl}-pyridin-2-yl)-N-hydroxy-acrylamide hydrochloride]
10 | ≤ 1000 | ≤ 1000 | ≤ 1000 | O=C(/C=C/c1cccc(/C=C/C(=O)N2CCCC(c3cccc(F)c3)C2)n1)NO (stereo not drawn) [Example 93, (E)-3-(6-{(E)-3-[3-(3-Fluoro-phenyl)-piperidin-1-yl]-3-oxo-propenyl}-pyridin-2-yl)-N-hydroxy-acrylamide hydrochloride]
11 | 1000 to 3000 | ≤ 1000 | ≤ 1000 | O=C(/C=C/c1cccc(/C=C/C(=O)N2CCCC(c3nc(-c4ccc(F)cc4)no3)C2)n1)NO (stereo not drawn) [Example 94, (E)-3-[6-((E)-3-{3-[3-(4-Fluoro-phenyl)-[1,2,4]oxadiazol-5-yl]-piperidin-1-yl}-3-oxo-propenyl)-pyridin-2-yl]-N-hydroxy-acrylamide hydrochloride]
12 | ≤ 1000 | ≤ 1000 | ≤ 1000 | O=C(/C=C/c1cccc(/C=C/C(=O)N2CCC=C(c3ccccc3)C2)n1)NO [Example 95, (E)-N-Hydroxy-3-{6-[(E)-3-oxo-3-(5-phenyl-3,6-dihydro-2H-pyridin-1-yl)-propenyl]-pyridin-2-yl}-acrylamide hydrochloride]
13 | ≥ 3000 | 1000 to 3000 | 1000 to 3000 | O=C(/C=C/c1cccc(/C=C/C(=O)N2CCc3cc(-c4ccccc4)ccc3C2)n1)NO [Example 96, (E)-N-Hydroxy-3-{6-[(E)-3-oxo-3-(6-phenyl-3,4-dihydro-1H-isoquinolin-2-yl)-propenyl]-pyridin-2-yl}-acrylamide hydrochloride]
14 | 1000 to 3000 | ≤ 1000 | ≤ 1000 | O=C(/C=C/c1cccc(/C=C/C(=O)N2CCc3nc(-c4ccccc4)sc3C2)n1)NO [Example 97, (E)-N-Hydroxy-3-{6-[(E)-3-oxo-3-(2-phenyl-6,7-dihydro-4H-thiazolo[5,4-c]pyridin-5-yl)-propenyl]-pyridin-2-yl}-acrylamide hydrochloride]
15 | 1000 to 3000 | 1000 to 3000 | ≤ 1000 | O=C(/C=C/c1cccc(/C=C/C(=O)N2CCCc3nc(-c4ccccc4)sc32)n1)NO [Example 98, (E)-N-Hydroxy-3-{6-[(E)-3-oxo-3-(2-phenyl-6,7-dihydro-5H-thiazolo[5,4-b]pyridin-4-A-propenyl]-pyridin-2-yl}-acrylamide trifluoroacetate]
